According to patent US6908931B2, “Tetrahydroisoquinoline derivatives as melatonin MT2 antagonists” (Bristol-Myers Squibb Company, priority 2003, dated 2005):
Read-outs that look alike come from different tables or passages of the source.

Target: T1, human MT2 receptor (Homo sapiens, UniProt P49286)
T1 construct: melatonin MT1 and MT2 receptors cDNA were individually subcloned into pcDNA3 and introduced into NIH-3T3 cells using Lipofectamine; expressed in transfected cells
T1 sequence (P49286 1-362): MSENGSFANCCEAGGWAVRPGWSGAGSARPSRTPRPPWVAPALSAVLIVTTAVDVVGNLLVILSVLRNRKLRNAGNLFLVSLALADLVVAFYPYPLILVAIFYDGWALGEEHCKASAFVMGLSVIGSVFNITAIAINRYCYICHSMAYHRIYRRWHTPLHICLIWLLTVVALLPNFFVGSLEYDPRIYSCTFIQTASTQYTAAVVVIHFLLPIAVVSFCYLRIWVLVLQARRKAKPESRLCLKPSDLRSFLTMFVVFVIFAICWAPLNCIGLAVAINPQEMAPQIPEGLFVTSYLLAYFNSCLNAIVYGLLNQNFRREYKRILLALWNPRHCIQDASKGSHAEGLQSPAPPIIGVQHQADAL
Assay: Melatonin receptor binding assay (MT2), 2-[125I]-iodomelatonin
Description: Melatonin receptor binding assay.
Membrane homogenates: melatonin MT1 and MT2 receptors cDNA were individually subcloned into pcDNA3 and introduced into NIH-3T3 cells using Lipofectamine. […] For preparing membrane homogenates, pellets are thawed on ice, and re-suspended in TME buffer in the presence of 10 μg/ml aprotinin and leupeptin, and 100 μM phenylmethylsulfonylfluoride. The cells were then homogenized using a dounce homogenizer, and centrifuged. The resulting pellet was re-suspended with dounce homogenizer in TME (supplemented with the above protease inhibitors) and frozen. On the day of assay, a small aliquot was thawed on ice and re-suspended in the ice cold TME (1:50-1:100 v/v) and held on ice until assayed. Incubation is at 37° C. for 1 hour. Reaction is terminated by filtration. Filters were washed 3 times.

[1] = membrane homogenates of NIH-3T3 cells expressing MT2, 2-[125I]-iodomelatonin 0.2 nM, 37° C., 1 hour, read-out: MT2 IC50

Row | Structure (SMILES) | IC50 [1] [nM] | IC50 [nM]
1 | CC(=O)N1CCc2cc(F)ccc2C1CC(c1ccccc1)c1ccccc1 (stereo not drawn) [Example 28] | 100 to 1000 | –
2 | CCCCCCC(=O)N1CCc2cc(OC)c(OC)cc2C1CCc1ccccc1 (stereo not drawn) [Example 61] | 100 to 1000 | –
3 | COc1cccc2c1CCN(C(C)=O)C2CC(c1ccccc1)c1ccccc1 (stereo not drawn) [Example 29] | 100 to 1000 | –
4 | COc1cc2c(cc1OC)C(CC(c1ccccc1)c1ccccc1)N(C(=O)C1CCC1)CC2 (stereo not drawn) [Example 43] | 100 to 1000 | –
5 | COc1cc2c(cc1OC)C(CCc1ccccc1)N(C(=O)CC(C)(C)C)CC2 (stereo not drawn) [Example 63] | 100 to 1000 | –
6 | COc1ccc(C(CC2c3cc(OC)c(OC)cc3CCN2C(C)=O)c2ccc(OC)cc2)cc1 (stereo not drawn) [Example 25] | 100 to 1000 | –
7 | COc1ccc2c(c1)C(CC(c1ccccc1)c1ccccc1)N(C(=O)c1ccc([N+](=O)[O-])cc1)CC2 (stereo not drawn) [Example 81] | 100 to 1000 | –
8 | COc1cc2c(cc1OC)C(CCc1ccccc1)N(C(=O)COc1ccccc1)CC2 (stereo not drawn) [Example 56] | 100 to 1000 | –
9 | COc1ccc2c(c1)C(CCc1ccc(F)cc1)N(C(=O)OCC(C)C)CC2 (stereo not drawn) [Example 120] | 100 to 1000 | –
10 | COc1cc2c(cc1Br)CCN(C(=O)c1cccc([N+](=O)[O-])c1)C2CC(c1ccccc1)c1ccccc1 (stereo not drawn) [Example 37] | 100 to 1000 | –
11 | COc1cc2c(cc1Br)CCN(C(=O)c1ccc(C)cc1)C2CC(c1ccccc1)c1ccccc1 (stereo not drawn) [Example 39] | 100 to 1000 | –
12 | COc1cc2c(cc1OC)C(CC(c1ccccc1)c1ccccc1)N(C(=O)c1ccccc1OC)CC2 (stereo not drawn) [Example 42] | 100 to 1000 | –
13 | CCCCCCCCCC(=O)N1CCc2cc(OC)c(OC)cc2C1CCc1ccccc1 (stereo not drawn) [Example 62] | 100 to 1000 | –
14 | CC(C)COC(=O)N1CCc2cc3c(cc2C1CCc1ccc(F)cc1)OCO3 (stereo not drawn) [Example 106] | 100 to 1000 | –
15 | CCCCCC(=O)N1CCc2cc(OC)c(OC)cc2C1CCc1ccccc1 (stereo not drawn) [Example 60] | 100 to 1000 | –
16 | O=C(c1ccccc1)N1CCc2cc3c(cc2C1CCc1ccc(F)cc1)OCO3 (stereo not drawn) [Example 93] | 100 to 1000 | –
17 | COC(=O)N1CCc2cc3c(cc2C1CCc1ccc(F)cc1)OCC3 (stereo not drawn) [Example 129] | 100 to 1000 | –

Row | Structure (SMILES) | IC50 [1] [nM] | IC50 [nM]
18 | O=C(OCc1ccccc1)N1CCc2cc3c(cc2C1CCc1ccc(F)cc1)OCO3 (stereo not drawn) [Example 100] | – | 100 to 1000
19 | COc1ccc2c(c1OC)CCN(C(C)=O)C2CC(c1ccccc1)c1ccccc1 (stereo not drawn) [Example 24] | 100 to 1000 | –
20 | COCC(=O)N1CCc2cc3c(cc2C1CCc1ccc(Cl)cc1)OCO3 (stereo not drawn) [Example 140] | < 100 | –
21 | CC(=O)OCC(=O)N1CCc2cc3c(cc2C1CCc1ccc(F)cc1)OCC3 (stereo not drawn) [Example 133] | 100 to 1000 | –
22 | COCC(=O)N1CCc2ccc(OC)cc2C1CCc1ccc(F)cc1 (stereo not drawn) [Example 110] | < 100 | –
23 | COc1cc2c(cc1OC)C(CCc1ccccc1)N(C(=O)C1CCCCC1)CC2 (stereo not drawn) [Example 58] | 100 to 1000 | –
24 | CCC(=O)N1CCc2cc3c(cc2C1CCc1ccc(F)cc1)OCO3 (stereo not drawn) [Example 105] | < 100 | –
25 | COc1cc2c(cc1Br)CCN(C(=O)CC(C)(C)C)C2CC(c1ccccc1)c1ccccc1 (stereo not drawn) [Example 36] | 100 to 1000 | –
26 | COc1cc2c(cc1OC)C(CC(c1ccccc1)c1ccccc1)N(C(N)=O)CC2 (stereo not drawn) [Example 8, N-carbamoyl 1-(2,2-diphenyleth-1-yl)-6,7-dimethoxy-1,2,3,4-tetrahydroisoquinoline] | < 100 | –
27 | COc1cc2c(cc1OC)C(CCc1ccccc1)N(C(=O)c1cc(C(F)(F)F)cc(C(F)(F)F)c1)CC2 (stereo not drawn) [Example 69] | 100 to 1000 | –
28 | CC(=O)N1CCc2cc3c(cc2C1CC(c1ccccc1)c1ccccc1)OCO3 (stereo not drawn) [Example 91] | 100 to 1000 | –
29 | COc1cc2c(cc1Br)CCN(C(=O)c1ccc([N+](=O)[O-])cc1)C2CC(c1ccccc1)c1ccccc1 (stereo not drawn) [Example 38] | 100 to 1000 | –
30 | COc1cc2c(cc1OC)C(CC(c1ccccc1)c1ccccc1)N(C(=O)C1CCCCC1)CC2 (stereo not drawn) [Example 44] | < 100 | –
31 | COc1cc2c(cc1Br)CCN(C(=O)c1ccc(C(F)(F)F)cc1)C2CC(c1ccccc1)c1ccccc1 (stereo not drawn) [Example 40] | 100 to 1000 | –
32 | COc1ccc(C(=O)N2CCc3cc4c(cc3C2CCc2ccc(Cl)cc2)OCO4)cc1 (stereo not drawn) [Example 141] | 100 to 1000 | –
33 | COc1ccc2c(c1)C(CC(c1ccccc1)c1ccccc1)N(C(=O)c1ccc(C)cc1)CC2 (stereo not drawn) [Example 82] | 100 to 1000 | –

The next lines start with results.

Row | IC50 [1] [nM] | Structure (SMILES) | IC50 [nM]
34 | < 100 | CCC(=O)N1CCc2cc(OC)c(OC)cc2C1CC(c1ccccc1)c1ccccc1 (stereo not drawn) [Example 3, N-propionyl 1-(2,2-diphenyleth-1-yl)-6,7-dimethoxy-1,2,3,4-tetrahydroisoquinoline] | –
35 | < 100 | CCCCCCC(=O)N1CCc2cc(Br)c(OC)cc2C1CC(c1ccccc1)c1ccccc1 (stereo not drawn) [Example 35] | –
36 | < 100 | COCC(=O)N1CCc2cc3c(cc2C1CCc1ccc(F)cc1)OCO3 (stereo not drawn) [Example 96] | –
37 | < 100 | COc1cc2c(cc1OC)C(CC(c1ccccc1)c1ccc(Cl)cc1)N(C(C)=O)CC2 (stereo not drawn) [Example 84] | –
38 | < 100 | COc1ccc2c(c1)C(CCc1ccc(F)cc1)N(C(=O)CCl)CC2 (stereo not drawn) [Example 112] | –
39 | < 100 | O=C(CCl)N1CCc2cc3c(cc2C1CCc1ccc(F)cc1)OCO3 (stereo not drawn) [Example 98] | –
40 | < 100 | COc1ccc(C(=O)N2CCc3cc(OC)c(OC)cc3C2CCc2ccccc2)cc1 (stereo not drawn) [Example 64] | –
41 | < 100 | CNC(=O)N1CCc2cc(OC)c(OC)cc2C1CC(c1ccccc1)c1ccccc1 (stereo not drawn) [Example 9, N-methylcarbamoyl 1-(2,2-diphenyleth-1-yl)-6,7-dimethoxy-1,2,3,4-tetrahydroisoquinoline] | –
42 | < 100 | COc1ccc2c(c1)C(CC(c1ccccc1)c1ccccc1)N(C(C)=O)CC2 (stereo not drawn) [Example 19] | –
43 | < 100 | COc1cc2c(cc1OC)C(CC(c1ccc(Cl)cc1)c1ccc(Cl)cc1)N(C(C)=O)CC2 (stereo not drawn) [Example 85] | –
44 | < 100 | CCC(=O)N1CCc2cc3c(cc2C1CCc1ccc(Cl)cc1)OCO3 (stereo not drawn) [Example 147] | –
45 | < 100 | COc1cc2c(cc1Br)CCN(C(C)=O)C2CC(c1ccccc1)c1ccccc1 (stereo not drawn) [Example 22] | –
46 | < 100 | COc1ccc2c(c1)C(CCc1ccc(F)cc1)N(C(=O)c1ccno1)CC2 (stereo not drawn) [Example 117] | –
47 | < 100 | CCCC(=O)N1CCc2cc(OC)c(OC)cc2C1CC(c1ccccc1)c1ccccc1 (stereo not drawn) [Example 4, N-butyryl 1-(2,2-diphenyleth-1-yl)-6,7-dimethoxy-1,2,3,4-tetrahydroisoquinoline] | –
48 | < 100 | COc1ccc2c(c1)C(CCc1ccc(F)cc1)N(C(C)=O)CC2 (stereo not drawn) [Example 90] | –
